Assay results: the supplement of paper PMC10307832

Experiments:
Assay in all cases: relative viability (nuclei count vs DMSO), 5 days (fraction); higher = more cells survive
GSK-J4 + Phenformin = compound: CCOC(=O)CCNc1cc(N2CCc3ccccc3CC2)nc(-c2ccccn2)n1 [GSK-J4] + N=C(N)NC(=N)NCCc1ccccc1 [Phenformin] (partner 250 µM)
How it was run: (§1)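 Relative viability was taken as the ratio of nuclei in treated wells to nuclei in vehicle wells. Lung cancer cell lines in 1536-well plates received compounds by pin tool one day after seeding, either one drug alone or a fixed anchor-drug dose plus five library-drug doses (not always all listed) in √10 steps. Nuclei were counted on 4× images after 5 days of treatment, and values are medians of duplicate plates.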

GSK-J4 + Alpelisib = compound: CCOC(=O)CCNc1cc(N2CCc3ccccc3CC2)nc(-c2ccccn2)n1 [GSK-J4] + Cc1nc(NC(=O)N2CCC[C@H]2C(N)=O)sc1-c1ccnc(C(C)(C)C(F)(F)F)c1 [Alpelisib] (partner 2 µM)
How it was run: as §1

GSK-J4 + Trametinib = compound: CCOC(=O)CCNc1cc(N2CCc3ccccc3CC2)nc(-c2ccccn2)n1 [GSK-J4] + CC(=O)Nc1cccc(-n2c(=O)n(C3CC3)c(=O)c3c(Nc4ccc(I)cc4F)n(C)c(=O)c(C)c32)c1 [Trametinib] (partner 0.02 µM)
How it was run: as §1

AZ3146 + Vorinostat = compound: CN1CCC(CC1)OC2=CC(=C(C=C2)NC3=NC=C4C(=N3)N(C(=O)N4C)C5CCCC5)OC [AZ3146] + O=C(CCCCCCC(=O)Nc1ccccc1)NO [Vorinostat] (partner 1 µM)
How it was run: as §1

Row | Cell Line | relative viability (GSK-J4 + Phenformin; first compound 0.5 µM) | relative viability (GSK-J4 + Phenformin; first compound 1.581 µM) | relative viability (GSK-J4 + Phenformin; first compound 5 µM) | relative viability (GSK-J4 + Phenformin; first compound 15.81 µM) | relative viability (GSK-J4 + Phenformin; first compound 50 µM) | relative viability (GSK-J4 + Alpelisib; first compound 0.5 µM) | relative viability (GSK-J4 + Alpelisib; first compound 1.581 µM) | relative viability (GSK-J4 + Alpelisib; first compound 5 µM) | relative viability (GSK-J4 + Alpelisib; first compound 15.81 µM) | relative viability (GSK-J4 + Alpelisib; first compound 50 µM) | relative viability (GSK-J4 + Trametinib; first compound 0.5 µM) | relative viability (GSK-J4 + Trametinib; first compound 1.581 µM) | relative viability (GSK-J4 + Trametinib; first compound 5 µM) | relative viability (GSK-J4 + Trametinib; first compound 15.81 µM) | relative viability (GSK-J4 + Trametinib; first compound 50 µM) | relative viability (AZ3146 + Vorinostat; first compound 0.08 µM) | relative viability (AZ3146 + Vorinostat; first compound 0.253 µM) | relative viability (AZ3146 + Vorinostat; first compound 0.8 µM) | relative viability (AZ3146 + Vorinostat; first compound 2.53 µM) | relative viability (AZ3146 + Vorinostat; first compound 8 µM)
1 | NCI-H322M | 0.788 | 0.553 | 0.806 | 0.729 | 0.545 | 0.901 | 0.718 | 0.734 | 0.747 | 0.733 | 0.513 | 0.482 | 0.623 | 0.457 | 0.503 | 0.798 | 0.839 | 0.916 | 0.904 | 0.849
2 | NCI-H358 | 0.443 | 0.264 | 0.349 | 0.266 | 0.255 | 0.868 | 0.639 | 0.98 | 0.876 | 0.773 | 0.145 |  | 0.157 | 0.118 | 0.131 | 0.571 | 0.687 | 0.631 | 0.723 | 0.171
3 | NCI-H441 | 0.819 | 0.852 | 0.641 | 0.805 | 0.809 | 0.741 | 0.521 | 0.475 | 0.736 | 0.57 | 0.498 | 0.386 | 0.492 | 0.383 | 0.352 | 0.674 | 0.803 | 0.557 | 0.821 | 0.647
4 | NCI-H460 | 0.515 | 0.365 | 0.361 | 0.472 | 0.398 | 0.54 | 0.377 | 0.554 | 0.456 | 0.433 | 0.258 |  | 0.143 | 0.0717 | 0.0851 | 0.623 | 0.813 | 0.707 | 0.693 | 0.0632
5 | NCI-H520 | 0.582 | 0.478 | 0.46 | 0.303 | 0.445 | 0.899 | 0.781 | 1.2 | 0.868 | 0.834 | 0.625 | 0.486 | 0.577 | 0.559 | 0.472 | 0.588 | 0.7 | 0.685 | 0.783 | 0.537
6 | NCI-H596 | 0.821 | 0.67 | 0.626 | 0.633 | 0.732 | 0.479 | 0.503 | 0.525 | 0.457 | 0.477 | 0.797 | 0.759 | 0.639 | 0.725 | 0.771 | 0.53 | 0.541 | 0.586 | 0.571 | 0.587
7 | NCI-H647 | 0.618 | 0.398 | 0.415 | 0.498 | 0.532 | 1.22 | 1.03 | 0.927 | 1.05 | 0.975 | 0.521 | 0.393 | 0.357 | 0.445 | 0.499 | 0.537 | 0.426 | 0.607 | 0.667 | 0.186
8 | NCI-H650 | 0.455 | 0.419 | 0.322 | 0.422 | 0.423 | 0.926 | 1.11 | 0.729 | 1.07 | 0.767 | 0.949 | 0.871 |  | 0.771 | 0.745 | 0.237 | 0.374 | 0.265 | 0.447 | 0.4
9 | NCI-H661 | 0.269 | 0.312 | 0.238 | 0.258 | 0.266 | 0.727 | 0.602 | 0.578 | 0.5 | 0.53 | 0.583 | 0.582 | 0.5 | 0.462 | 0.418 | 0.701 | 0.846 | 0.786 | 0.813 | 0.505
10 | NCI-H727 | 0.566 | 0.76 | 0.791 | 0.589 | 0.441 | 0.549 |  | 0.894 | 0.621 | 0.264 | 0.405 | 0.393 | 0.378 | 0.385 | 0.331 | 1.01 | 1.22 | 1.03 | 1.17 | 1.11
11 | NCI-H838 | 0.798 | 0.465 |  | 0.528 | 0.487 | 1.02 | 0.927 |  | 0.962 | 0.905 | 0.566 | 0.455 | 0.223 | 0.436 | 0.332 | 0.67 | 0.756 | 0.69 | 0.589 | 0.308
12 | NCI-H1355 | 0.447 | 0.39 | 0.333 | 0.359 | 0.36 | 0.761 | 0.741 | 0.857 | 0.762 | 0.757 | 0.371 | 0.4 | 0.486 | 0.396 | 0.327 | 0.517 | 0.619 | 0.69 | 0.712 | 0.622
13 | NCI-H1395 | 0.418 | 0.459 | 0.372 | 0.421 | 0.443 | 1.03 | 0.88 | 0.845 | 1.14 | 0.821 | 1.04 | 0.919 | 1.02 | 0.806 | 0.854 | 0.66 | 0.504 |  | 0.84 | 0.615
14 | NCI-H1437 | 0.319 | 0.263 | 0.308 | 0.371 | 0.25 | 0.904 | 0.979 | 0.908 | 0.873 | 0.428 | 0.478 | 0.444 | 0.553 | 0.491 | 0.29 | 0.774 | 0.771 | 0.842 | 0.839 | 0.538
15 | NCI-H1651 | 0.294 | 0.308 | 0.348 | 0.384 | 0.392 | 0.888 | 0.814 | 0.957 | 0.93 | 0.892 | 0.761 | 0.785 | 0.898 | 0.79 | 0.772 | 0.428 | 0.519 | 0.477 | 0.512 | 0.568
16 | NCI-H1666 | 0.512 | 0.515 | 0.605 | 0.486 | 0.464 | 0.881 |  | 1.08 | 0.985 | 0.508 | 0.843 | 0.695 | 0.923 | 0.704 | 0.77 | 0.976 | 1.09 | 1.01 | 1.09 | 0.994
